Laboratory results as given in PubChem BioAssay AID342 (DTP/NCI, 2004).
Where “and” joins values, the source holds several entries; their conditions need not be identical. Identical values can stand only once.

Tested on: Swiss mice, Sarcoma 180 sc, mean tumor weight T/C
Experiment: NCI In Vivo Anticancer Drug Screen. Data for tumor model Sarcoma 180 (subcutaneous) in Swiss mice
Details: endpoint: mean tumor weight, higher = larger tumour
How it was run: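 T/C ratio: treated over vehicle-treated controls, measuring survival or tumor size in transplanted-tumor mice.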

[1] = dose: 50.0 mg/kg/injection, schedule: Q01DX007 (ip), vehicle: carboxymethylcellulose (CMC)

COC1C(O)CC(=O)OC(C)C/C=C/C=C/C(OC2CCC(N(C)C)C(C)O2)C(C)CC(CC=O)C1OC1OC(C)C(OC2CC(C)(O)C(O)C(C)O2)C(N(C)C)C1O (stereo not given)
T/C (dose: 44.0 mg/kg/injection, schedule: Q01DX007 (ip), vehicle: water): 124 % of control
T/C (dose: 66.0 mg/kg/injection, schedule: Q01DX007 (ip), vehicle: water): 85 % of control
T/C (dose: 100.0 mg/kg/injection, schedule: Q01DX007 (ip), vehicle: water): 123 % of control
T/C (dose: 150.0 mg/kg/injection, schedule: Q01DX007 (ip), vehicle: water): 95 % of control
T/C (dose: 225.0 mg/kg/injection, schedule: Q01DX007 (ip), vehicle: water): 110 % of control
T/C (dose: 337.0 mg/kg/injection, schedule: Q01DX007 (ip), vehicle: water): 72 % of control

CO[C@H]1CC[C@@]2(C)[C@@H](CC[C@H]3[C@@H]4C[C@H](O)C[C@@]4(C)CC[C@@H]32)C1
T/C (dose: 0.01 mg/kg/injection, schedule: Q#A X014 (sc), vehicle: olive oil, sesame oil, peanut oil): 121 % of control
T/C (dose: 0.05 mg/kg/injection, schedule: Q#A X014 (sc), vehicle: olive oil, sesame oil, peanut oil): 72 % of control
T/C (dose: 0.25 mg/kg/injection, schedule: Q#A X014 (sc), vehicle: olive oil, sesame oil, peanut oil): 112 % of control
T/C (dose: 50.0 mg/kg/injection, schedule: Q#A X014 (ip), vehicle: distilled water + alcohol): 95 % of control

CN(N=O)C(N)=O
T/C (dose: 1.4 mg/kg/injection, schedule: Q#A X014 (ip), vehicle: carboxymethylcellulose (CMC)): 45 % of control
T/C (dose: 1.5 mg/kg/injection, schedule: Q#A X014 (ip), vehicle: carboxymethylcellulose (CMC)): 63 % of control
T/C (dose: 2.81 mg/kg/injection, schedule: Q#A X014 (ip), vehicle: carboxymethylcellulose (CMC)): 53 % of control
T/C (dose: 3.0 mg/kg/injection, schedule: Q#A X014 (ip), vehicle: carboxymethylcellulose (CMC)): 73 % of control
T/C (dose: 5.62 mg/kg/injection, schedule: Q#A X014 (ip), vehicle: carboxymethylcellulose (CMC)): 27 % of control
T/C (dose: 6.0 mg/kg/injection, schedule: Q#A X014 (ip), vehicle: carboxymethylcellulose (CMC)): 41 % of control
T/C (dose: 7.5 mg/kg/injection, schedule: Q01DX007 (ip), vehicle: carboxymethylcellulose (CMC)): 67 % of control
T/C (dose: 9.6 mg/kg/injection, schedule: Q01DX007 (ip), vehicle: carboxymethylcellulose (CMC)): 65 % of control
T/C (dose: 11.25 mg/kg/injection, schedule: Q01DX007 (ip), vehicle: carboxymethylcellulose (CMC)): 73 % of control
T/C (dose: 12.0 mg/kg/injection, schedule: Q01DX007 (ip), vehicle: carboxymethylcellulose (CMC)): 49 % of control
T/C (dose: 12.0 mg/kg/injection, schedule: Q#A X014 (ip), vehicle: carboxymethylcellulose (CMC)): 35 % of control
T/C (dose: 15.0 mg/kg/injection, schedule: Q01DX007 (ip), vehicle: carboxymethylcellulose (CMC)): 30 % of control
T/C (dose: 16.0 mg/kg/injection, schedule: Q01DX007 (ip), vehicle: carboxymethylcellulose (CMC)): 51 % of control
T/C (dose: 22.5 mg/kg/injection, schedule: Q01DX007 (ip), vehicle: carboxymethylcellulose (CMC)): 14 % of control
T/C (dose: 24.0 mg/kg/injection, schedule: Q01DX007 (ip), vehicle: carboxymethylcellulose (CMC)): 31 % of control

CC(C)CCCCCCCCCCCCC(=O)NCC(=O)NC1C(O)C(O)C(Nc2ncnc3nc[nH]c23)OC1C(O)CO (stereo not given)
T/C (dose: 0.3 mg/kg/injection, schedule: Q## X000 (ip), vehicle: carboxymethylcellulose (CMC)): 63 % of control
T/C (dose: 0.44 mg/kg/injection, schedule: Q## X000 (ip), vehicle: carboxymethylcellulose (CMC)): 61 % of control
T/C (dose: 0.6 mg/kg/injection, schedule: Q01DX007 (ip), vehicle: carboxymethylcellulose (CMC)): 58 % of control and 70 % of control
T/C (dose: 0.66 mg/kg/injection, schedule: Q## X000 (ip), vehicle: carboxymethylcellulose (CMC)): 53 % of control
T/C (dose: 0.9 mg/kg/injection, schedule: Q01DX007 (ip), vehicle: carboxymethylcellulose (CMC)): 36 % of control and 56 % of control
T/C (dose: 1.0 mg/kg/injection, schedule: Q## X000 (ip), vehicle: carboxymethylcellulose (CMC)): 36 % of control
T/C (dose: 1.35 mg/kg/injection, schedule: Q01DX007 (ip), vehicle: carboxymethylcellulose (CMC)): 82 % of control

CO/[N+]([O-])=C\C(=O)N/C=C/C(=O)O
T/C [1]: 79 % of control

Clc1c(Cl)c(Cl)c(SCc2ccccc2)c(Cl)c1Cl
T/C (dose: 111.0 mg/kg/injection, schedule: Q#A X014 (ip), vehicle: saline): 83 % of control
T/C (dose: 166.5 mg/kg/injection, schedule: Q#A X014 (ip), vehicle: saline): 70 % of control
T/C (dose: 250.0 mg/kg/injection, schedule: Q#A X014 (ip), vehicle: saline): 42 % of control
T/C (dose: 375.0 mg/kg/injection, schedule: Q#A X014 (ip), vehicle: saline): 38 % of control

CCCCN(C)N=Nc1ccc(C(N)=O)cc1
T/C [1]: 67 % of control
T/C (dose: 75.0 mg/kg/injection, schedule: Q01DX007 (ip), vehicle: carboxymethylcellulose (CMC)): 32 % of control

Nc1nc(=O)n(C2CC(O)C(CO)O2)cc1Br (stereo not given)
T/C (dose: 62.5 mg/kg/injection, schedule: Q#A X014 (ip), vehicle: carboxymethylcellulose (CMC)): 58 % of control
T/C (dose: 125.0 mg/kg/injection, schedule: Q#A X014 (ip), vehicle: carboxymethylcellulose (CMC)): 57 % of control
T/C (dose: 250.0 mg/kg/injection, schedule: Q#A X014 (ip), vehicle: carboxymethylcellulose (CMC)): 50 % of control

Nc1n[se]nc1C(=O)O
T/C (dose: 0.5 mg/kg/injection, schedule: Q01DX007 (ip), vehicle: carboxymethylcellulose (CMC)): 96 % of control
T/C (dose: 1.0 mg/kg/injection, schedule: Q01DX007 (ip), vehicle: carboxymethylcellulose (CMC)): 117 % of control
T/C (dose: 2.0 mg/kg/injection, schedule: Q01DX007 (ip), vehicle: carboxymethylcellulose (CMC)): 77 % of control

C[C@]12C=CC(=O)C=C1CC[C@@H]1[C@@H]2[C@@H](O)C[C@@]2(C)[C@H]1CC[C@]2(O)C(=O)CF
T/C (dose: 6.0 mg/kg/injection, schedule: Q01DX007 (sc), vehicle: steriod suspending solution): 77 % of control
T/C (dose: 9.0 mg/kg/injection, schedule: Q01DX007 (sc), vehicle: steriod suspending solution): 91 % of control
T/C (dose: 13.3 mg/kg/injection, schedule: Q01DX007 (sc), vehicle: steriod suspending solution): 82 % of control
T/C (dose: 20.0 mg/kg/injection, schedule: Q01DX007 (sc), vehicle: steriod suspending solution): 35 % of control and 49 % of control and 54 % of control
T/C (dose: 45.0 mg/kg/injection, schedule: Q01DX007 (sc), vehicle: steriod suspending solution): 32 % of control
T/C (dose: 70.0 mg/kg/injection, schedule: Q01DX007 (sc), vehicle: steriod suspending solution): 27 % of control and 32 % of control and 36 % of control
T/C (dose: 107.0 mg/kg/injection, schedule: Q01DX007 (sc), vehicle: steriod suspending solution): 32 % of control
T/C (dose: 158.0 mg/kg/injection, schedule: Q01DX007 (sc), vehicle: steriod suspending solution): 36 % of control
T/C (dose: 160.0 mg/kg/injection, schedule: Q01DX007 (sc), vehicle: steriod suspending solution): 24 % of control
T/C (dose: 352.0 mg/kg/injection, schedule: Q01DX007 (sc), vehicle: steriod suspending solution): 52 % of control
T/C (dose: 358.0 mg/kg/injection, schedule: Q01DX007 (sc), vehicle: steriod suspending solution): 33 % of control
T/C (dose: 360.0 mg/kg/injection, schedule: Q01DX007 (sc), vehicle: steriod suspending solution): 33 % of control
T/C (dose: 537.0 mg/kg/injection, schedule: Q01DX007 (sc), vehicle: steriod suspending solution): 39 % of control and 56 % of control
T/C (dose: 540.0 mg/kg/injection, schedule: Q01DX007 (sc), vehicle: steriod suspending solution): 20 % of control and 22 % of control
T/C (dose: 801.0 mg/kg/injection, schedule: Q01DX007 (sc), vehicle: steriod suspending solution): 49 % of control
T/C (dose: 1202.0 mg/kg/injection, schedule: Q01DX007 (sc), vehicle: steriod suspending solution): 61 % of control

COc1cccc(/C=N\NC(=O)C(C)SC(C)C(=O)N/N=C/c2cccc(OC)c2)c1 (stereo not given)
T/C (dose: 25.0 mg/kg/injection, schedule: Q01DX007 (ip), vehicle: carboxymethylcellulose (CMC)): 68 % of control
T/C (dose: 38.0 mg/kg/injection, schedule: Q01DX007 (ip), vehicle: carboxymethylcellulose (CMC)): 62 % of control
T/C (dose: 42.0 mg/kg/injection, schedule: Q#A X014 (ip), vehicle: carboxymethylcellulose (CMC)): 78 % of control
T/C (dose: 53.0 mg/kg/injection, schedule: Q01DX007 (ip), vehicle: methylcellulose (MC)): 77 % of control
T/C (dose: 56.0 mg/kg/injection, schedule: Q01DX007 (ip), vehicle: carboxymethylcellulose (CMC)): 35 % of control
T/C (dose: 63.0 mg/kg/injection, schedule: Q#A X014 (ip), vehicle: carboxymethylcellulose (CMC)): 79 % of control
T/C (dose: 80.0 mg/kg/injection, schedule: Q01DX007 (ip), vehicle: methylcellulose (MC)): 63 % of control
T/C (dose: 95.0 mg/kg/injection, schedule: Q#A X014 (ip), vehicle: carboxymethylcellulose (CMC)): 65 % of control
T/C (dose: 120.0 mg/kg/injection, schedule: Q01DX007 (ip), vehicle: methylcellulose (MC)): 47 % of control
T/C (dose: 142.5 mg/kg/injection, schedule: Q#A X014 (ip), vehicle: carboxymethylcellulose (CMC)): 61 % of control
T/C (dose: 180.0 mg/kg/injection, schedule: Q01DX007 (ip), vehicle: methylcellulose (MC)): 59 % of control
T/C (dose: 270.0 mg/kg/injection, schedule: Q01DX007 (ip), vehicle: methylcellulose (MC)): 58 % of control
T/C (dose: 300.0 mg/kg/injection, schedule: Q01DX007 (ip), vehicle: carboxymethylcellulose (CMC)): 64 % of control
T/C (dose: 400.0 mg/kg/injection, schedule: Q01DX007 (ip), vehicle: carboxymethylcellulose (CMC)): 59 % of control
